Source: PMC5015106 (Scientific Reports, 2016)
Numbered stars: 1 amine (or outer) side, 2 acyl side, 3 side chain; on linkers, the order of the positions; unused ones are H or OH. Bridge positions count the residues as written; N and C are the ends. Square brackets hold non-standard residues; d marks the D form. Peptide text beside a SMILES is read from it. hTyr = N[CH](CCc1ccc(O)cc1)C(=O)O; NMeA = CN[CH](C)C(=O)O; CO = O=C([*:1])[*:2]

Columns and labels:
Assay type in all cases: biochemical
CPN = target: T1, CPN (Homo sapiens, UniProt P15169); assay: Protease/carboxypeptidase panel: CPN; settings: read-out: IC50 CPN
T1 sequence (P15169 21-458): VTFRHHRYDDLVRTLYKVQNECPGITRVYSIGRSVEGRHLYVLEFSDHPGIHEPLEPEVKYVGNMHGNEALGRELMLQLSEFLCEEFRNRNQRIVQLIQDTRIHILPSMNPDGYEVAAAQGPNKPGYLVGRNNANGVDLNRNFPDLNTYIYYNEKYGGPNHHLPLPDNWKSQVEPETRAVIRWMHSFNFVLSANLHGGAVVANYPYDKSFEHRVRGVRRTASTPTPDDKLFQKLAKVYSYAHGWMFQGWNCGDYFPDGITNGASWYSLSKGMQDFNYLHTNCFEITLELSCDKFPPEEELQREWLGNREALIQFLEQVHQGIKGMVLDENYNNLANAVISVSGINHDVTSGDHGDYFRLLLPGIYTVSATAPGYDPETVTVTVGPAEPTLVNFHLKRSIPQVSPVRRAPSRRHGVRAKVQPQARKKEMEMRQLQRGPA
T1 sequence (P22792 22-545 partner): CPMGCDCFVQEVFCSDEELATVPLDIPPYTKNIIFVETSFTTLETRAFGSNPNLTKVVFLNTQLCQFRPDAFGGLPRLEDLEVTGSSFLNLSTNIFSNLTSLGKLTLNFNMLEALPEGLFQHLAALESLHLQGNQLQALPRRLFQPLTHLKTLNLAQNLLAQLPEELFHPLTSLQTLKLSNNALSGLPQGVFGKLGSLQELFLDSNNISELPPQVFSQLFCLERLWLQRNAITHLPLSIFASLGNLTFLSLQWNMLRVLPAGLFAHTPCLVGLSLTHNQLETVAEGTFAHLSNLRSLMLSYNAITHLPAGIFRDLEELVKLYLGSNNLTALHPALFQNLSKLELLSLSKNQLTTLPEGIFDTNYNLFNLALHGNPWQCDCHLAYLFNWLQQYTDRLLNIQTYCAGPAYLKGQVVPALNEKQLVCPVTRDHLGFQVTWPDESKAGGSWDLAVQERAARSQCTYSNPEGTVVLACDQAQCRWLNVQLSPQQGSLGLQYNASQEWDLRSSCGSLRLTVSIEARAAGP
From the text: Supplement srep32958-s1.docx, table 1: Table S1: Activities of Anabaenopeptins against a panel of proteases/carboxypeptidases. | column: CPN

CPA = target: T2, CPA (Homo sapiens, UniProt P15085); assay: Protease/carboxypeptidase panel: CPA
T2 sequence (P15085 111-419): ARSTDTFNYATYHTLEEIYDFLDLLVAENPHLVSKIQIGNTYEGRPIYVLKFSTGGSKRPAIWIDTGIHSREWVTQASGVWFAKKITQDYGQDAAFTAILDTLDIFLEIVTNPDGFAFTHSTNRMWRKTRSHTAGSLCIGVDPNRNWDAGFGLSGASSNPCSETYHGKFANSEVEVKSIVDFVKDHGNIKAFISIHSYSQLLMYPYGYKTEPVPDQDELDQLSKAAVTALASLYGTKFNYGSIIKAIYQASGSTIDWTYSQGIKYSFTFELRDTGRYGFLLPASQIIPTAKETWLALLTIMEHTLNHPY
From the text: Supplement srep32958-s1.docx, table 1: Table S1: Activities of Anabaenopeptins against a panel of proteases/carboxypeptidases. | column: CPA

FXa = FXa (Homo sapiens, UniProt P00742); assay: Protease/carboxypeptidase panel: FXa; settings: for inhibition at 100 µM: read-out: Inh.@100µM in % FXa
Chain of FXa (P00742 235-488 limits assumed): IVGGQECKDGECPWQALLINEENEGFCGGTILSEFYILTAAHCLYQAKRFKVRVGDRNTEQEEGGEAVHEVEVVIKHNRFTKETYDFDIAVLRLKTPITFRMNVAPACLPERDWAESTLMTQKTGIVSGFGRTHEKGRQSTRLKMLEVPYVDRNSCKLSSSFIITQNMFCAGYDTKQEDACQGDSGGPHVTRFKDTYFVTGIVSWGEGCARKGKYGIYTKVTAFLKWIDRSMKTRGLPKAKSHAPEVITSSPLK
Chain of FXa (P00742 41-179 partner limits assumed): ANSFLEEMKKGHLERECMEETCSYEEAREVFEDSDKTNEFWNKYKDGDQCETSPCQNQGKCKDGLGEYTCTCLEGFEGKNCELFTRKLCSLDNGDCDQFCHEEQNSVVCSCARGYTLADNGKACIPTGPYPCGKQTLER
From the text: Supplement srep32958-s1.docx, table 1: Table S1: Activities of Anabaenopeptins against a panel of proteases/carboxypeptidases. | column: FXa

FIIa = FIIa (Homo sapiens, UniProt P00734); assay: Protease/carboxypeptidase panel: FIIa; settings: read-out: Ki FIIa
From the text: Supplement srep32958-s1.docx, table 1: Table S1: Activities of Anabaenopeptins against a panel of proteases/carboxypeptidases. | column: FIIa

FVIIa = target: T3, FVIIa (Homo sapiens, UniProt P08709); assay: Protease/carboxypeptidase panel: FVIIa; settings: read-out: Inh.@100µM in % FVIIa
T3 sequence (P08709 213-466 limits assumed): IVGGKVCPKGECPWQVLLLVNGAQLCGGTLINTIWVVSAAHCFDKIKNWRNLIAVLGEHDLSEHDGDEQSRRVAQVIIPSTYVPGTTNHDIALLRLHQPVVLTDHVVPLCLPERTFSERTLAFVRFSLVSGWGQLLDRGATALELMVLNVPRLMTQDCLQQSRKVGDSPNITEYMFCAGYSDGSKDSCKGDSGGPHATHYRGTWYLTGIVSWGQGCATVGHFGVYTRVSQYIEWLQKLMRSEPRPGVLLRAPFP
T3 sequence (P08709 61-212 partner limits assumed): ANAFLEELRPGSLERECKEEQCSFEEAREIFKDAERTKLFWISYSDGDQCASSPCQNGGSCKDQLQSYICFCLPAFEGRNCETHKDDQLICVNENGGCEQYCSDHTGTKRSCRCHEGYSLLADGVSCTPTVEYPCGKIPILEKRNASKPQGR
From the text: Supplement srep32958-s1.docx, table 1: Table S1: Activities of Anabaenopeptins against a panel of proteases/carboxypeptidases. | column: FVIIa

Work on `CC(C)[C@@H]1NC(=O)[C@H](NC(=O)N[C@@H](CCCNC(=N)N)C(=O)O)CCCCNC(=O)[C@H](Cc2ccccc2)NC(=O)[C@H](C)N(C)C(=O)[C@H](CCc2ccc(O)cc2)NC1=O` [Compound 1, Anabaenopeptin B] ({Arg-CO}-[dK]V[hTyr][NMeA]F; lactam 1-C) yielded an IC50 (CPN) of 5.4 µM, an IC50 (CPA) of 3.9 µM and an inhibition at 100 µM (FXa) of 22%. It also gave a Ki (FIIa) of 1.6 µM and an inhibition at 100 µM (FVIIa) of 35%.

For `CC(C)C1NC(=O)C(NC(=O)NC(CCCCN)C(=O)O)CCCCNC(=O)C(Cc2ccccc2)NC(=O)C(C)N(C)C(=O)C(CCc2ccc(O)cc2)NC1=O` (centres unmarked) [Compound 2, Anabaenopeptin C] ({Lys-CO}-KV[hTyr][NMeA]F; lactam 1-C; configuration not given here), the IC50 (CPN) was 5.7 µM, the inhibition at 100 µM (CPA; 100 µM, read-out: Inh.@100µM in % CPA) was 31% and the inhibition at 100 µM (FXa) was 42%. It also gave a Ki (FIIa) of 6 µM and an inhibition at 100 µM (FVIIa) of 36%.

`CC[C@H](C)[C@@H]1NC(=O)[C@H](NC(=O)N[C@@H](CCCNC(=N)N)C(=O)O)CCCCNC(=O)[C@H](Cc2ccccc2)NC(=O)[C@H](C)N(C)C(=O)[C@H](CCc2ccc(O)cc2)NC1=O` [Compound 3, Anabaenopeptin F] ({Arg-CO}-[dK]I[hTyr][NMeA]F; lactam 1-C) gave an IC50 (CPN) of 2.7 µM, an IC50 (CPA) of 1.1 µM and a Ki (FXa) of 38 µM. For the same molecule, the Ki (FIIa) was 0.35 µM.
